Experiment: Storage stability of crystalline Form IV by XRPD and/or DSC
Format: physicochemical
Procedure: FIG. 3A is an XRPD corresponding to essentially pure Form IV of N—((R)-2,3-dihydroxypropoxy)-3,4-difluoro-2-(2-fluoro-4-iodo-phenylamino)-benzamide after storage for 68 months after production at 25° C. and ≤65% relative humidity.
FIG. 3B is an XRPD corresponding to essentially pure Form IV of N—((R)-2,3-dihydroxypropoxy)-3,4-difluoro-2-(2-fluoro-4-iodo-phenylamino)-benzamide after storage for 140 months after production at 25° C. and ≤65% relative humidity.
In some aspects, the XRPD pattern is generated using a PANALYTICAL® X'Pert Pro diffractometer using Ni-filtered Cu Kα (45 kV/40 mA) radiation and a step size of 0.03° 2θ with a X′CELERATOR® Real Time Multi-Strip detector, configured (a) on the incidental beam side as follows: variable divergence slits (10 mm irradiated length), 0.04 rad Soller slits, fixed anti-scatter slit (0.50°), and 10 mm beam mask, and (b) on the diffracted beam side as follows: variable anti-scatter slit (10 mm observed length) and 0.04 rad Soller slit or a BRUKER® D8® ADVANCE™ system using Cu Kα (40 kV/40 mA) radiation and a step size of 0.03° 2θ with a LYNXEYE™ detector, configured (a) on the incidental beam side as follows: Goebel mirror, mirror exit slit (0.2 mm), 2.5° Soller slit, beam knife, and (b) on the diffracted beam side as follows: anti-scatter slit (8 mm) and 2.5° Soller slit; wherein samples are mounted flat on zero-background Si wafers. […]

Structure (SMILES): O=C(NOC[C@H](O)CO)c1ccc(F)c(F)c1Nc1ccc(I)cc1F [essentially pure Form IV, N—((R)-2,3-dihydroxypropoxy)-3,4-difluoro-2-(2-fluoro-4-iodo-phenylamino)-benzamide]
- XRPD pattern and/or DSC profile after storage (storage for 68 months at standard warehouse conditions (15° C.-25° C. and ≤65% relative humidity), FIG. 3A): substantially unchanged
- XRPD pattern and/or DSC profile after storage (storage for ≥140 months at standard warehouse conditions (15° C.-25° C. and ≤65% relative humidity), FIG. 3B): substantially unchanged
